According to a melting point compilation (Tetko et al.; mined from patent text by program, amines drawn as free bases though some values may be those of a salt):

Structure (SMILES)	melting point [°C]
COc1ccc([C@H](O)[C@@H](Cc2ccc(C(F)(F)F)cc2)NC(=O)CCc2ccccc2)cc1 (racemic)	116 to 117
NC(=O)c1ccc(F)c2c1CC(N(CCCc1c[nH]c3ccc(F)cc13)CC1CC1)CO2 (stereo unspecified)	121
COCOc1cc(OC)c(OC)cc1C#Cc1ccc(OC)c(OC)c1	84 to 86
CC(C)NCCc1ccc(O)cc1	102 to 104
COc1ccc2c(c1)C(=O)C(=O)N2c1ccc(F)cc1	246 to 247
CSc1nnsc1-c1cccs1	49 to 49.5
CCCCCCCCCCCCCCCCCCCCCCOc1ccc(C(=O)OCC)cc1	56.5 to 59.5
CCOC(=O)COc1cccc(-c2nc3ncccc3[nH]2)c1	158
CCC1(c2ccccc2)OC(c2ccc(-c3ccc(Cl)cc3)cc2)OC1=O (stereo unspecified)	80 to 83
Cc1c(C=NO)c2ccccc2n1-c1ccc(OCc2ccccc2)c(F)c1	167 to 168
Clc1ccc(-c2ccc[nH]2)cc1Cl	49 to 51
Clc1ccc2c(c1)N=C(NCCn1ccnc1)c1ccccc1N2	168 to 170
Nc1nc2c(Cc3cccnc3)c[nH]c2c(=O)[nH]1	> 300
CCCCCCCCCCCCCCCSCCCO	36 to 39
Nc1ccc(Nc2ccccc2[N+](=O)[O-])cc1	110 to 112
N=C(NCC1(c2ccccc2)CC1)NN=Cc1c(Cl)cccc1Cl	136 to 138
Cc1cccc(C(=O)Nc2ccc(-c3ccc(-c4ccccc4Cl)n3Cc3cccc(N)n3)cc2)c1	108 to 118
Cc1cc(C)c2c(c1)OC(C)(COc1ccc([N+](=O)[O-])cc1)C=C2 (stereo unspecified)	116 to 118
O=C1c2ccccc2-c2c1cccc2-c1nc2ccncc2[nH]1	236 to 238

Structure (SMILES)	melting point [°C]
O=S1CSC(=C(c2ccc(F)cc2)c2ccc(F)cc2)SC1 (stereo unspecified)	155 to 156
CCOC(=O)c1cc(OC)ccc1CCc1cc2cc(C#N)ccc2o1	92 to 93
CCc1cc2c(s1)-n1c(CCNC(=O)c3cc4ccccc4[nH]3)nnc1CN=C2c1ccccc1Cl	174 to 178
O=Cc1c2cccc(Cl)c2c(Cl)c2c(Cl)cccc12	118 to 120
C(=Cc1ccc(C=Cc2ccccc2)c2ccccc12)c1ccccc1	189
CN(C)Cc1ccc2n1Cc1ccccc1N(C(=O)c1ccc(-c3ccccc3)cc1)C2	85 to 87
NNc1c(F)c(F)c(C(F)(F)F)c(F)c1Cl	91 to 92
CNC(=NC#N)Nc1ccc(C2=NNC(=O)CC2C)cc1 (stereo unspecified)	235
CC1CC=NN1C(=O)c1cccnc1 (single isomer, unassigned; (-))	67 to 69
NS(=O)(=O)Oc1cccc(Cl)c1	82 to 83
COc1ccc(OC)c(-c2cc(F)cc3c2OC(CN)C3)c1 (stereo unspecified)	120 to 122
O=C(O)c1ccc(C(c2ccccc2)(c2ccc(C(=O)O)c(C(=O)O)c2)C(F)(F)F)cc1C(=O)O	210 to 213
CCOCn1c(-c2cc(F)cc(F)c2)c(C#N)c(Br)c1C(F)(F)F	74 to 75
Clc1cc2c(cc1Cl)Sc1cc(Cl)c(Cl)cc1S2	250 to 255
COc1cn(-c2ccc(N3CC(F)C3)cc2F)nc(-c2ccnn2-c2ccccc2)c1=O	162 to 163
O=C(CCc1ccccc1)N[C@H](Cc1ccc(C(F)(F)F)cc1)[C@@H](O)c1ccoc1 (racemic)	134 to 135
OC1(c2ccc(F)cc2)CCC2(CC1)OCCO2	133 to 135
N#Cc1ccc(COc2cccc(F)c2)cc1	69 to 70
Cc1[nH]nc(Oc2ncc(C(F)(F)F)cc2Cl)c1C	102 to 103

Structure (SMILES)	melting point [°C]
Cc1c(-c2ccccc2)nn(C(C)C(=O)N(C)C)c1[N+](=O)[O-] (stereo unspecified)	141 to 143
CC(=O)c1ccc(-c2ccccc2F)cc1	84.5 to 86.5
CC(C)(O)c1cc(-c2ccc(Cl)cc2)nc2ccnn12	113 to 115
Cn1c(CC(=O)O)cc2ccccc21	146 to 148
O=C(O)COc1ccccc1OCCC(c1ccccc1)(c1ccccc1)c1ccccc1	137 to 139
Cc1cccc2[nH]c(C(=O)OC(C)C)c(Sc3ccc(Cl)cc3)c12	190 to 192
O=C1OCc2c1oc1c(F)cccc1c2=O	164
c1cc2c(cc1-c1nc(OCC3CC3)nc3cc4c(cc13)OCO4)OCO2	175 to 182
CC(=O)SCC(=Cc1ccccc1)C(=O)NCCC(=O)OCc1ccccc1	80
CC(=O)Nc1nc(NC(C)CCc2ccccc2)nc(C(C)(C)F)n1 (stereo unspecified)	91
COCc1c(C)c(C(C)(C)C)cc(C(C)(C)C)c1O	70
CC(CO)c1ccc2nc(-c3ccccc3)oc2c1 (stereo unspecified)	98
NC(=O)NC(=O)c1ccccc1	175
Cn1c(CO)nc2ncccc21	130 to 132
CON(C)C(=O)c1cc(-c2ccccc2)n[nH]1	135 to 138
Brc1ccccc1Cc1nc(-c2ccncc2)cs1	114 to 116
CN(C)c1ccc2nc(N)c(C#N)c(NCc3ccco3)c2c1	235
Cc1cc(C(O)(C=Cc2ccc(Cl)cc2)C(F)(F)F)ccc1N (stereo unspecified)	126 to 129
CCCCc1cc2c3c(c[nH]c3c1)CC1C2CC(NC(=O)c2ccccc2)CN1C (stereo unspecified)	143 to 145

Other lines, results leading:

melting point [°C]	Structure (SMILES)
110	O=C(O)CN1C(=O)CC1SCc1ccccc1 (stereo unspecified)
225 to 226	Cn1c(COc2ccc(Cn3cc(CCC(=O)O)c(-c4ccccc4)n3)cc2)nc2ccccc21
145 to 148	COc1ccc2c(c1)c(Cc1cc(=O)n(C3CCCCCC3)[nH]1)c(C)n2C(=O)c1ccc(Cl)cc1
103 to 106	C=CCSC(=NC(=O)OC)NC(=O)NC(C)C
94 to 95	CCOP(=O)(CNc1ccc(Cl)cc1[N+](=O)[O-])OCC
212 to 213	CC(=O)N1c2ccc(C#N)cc2C(Nc2ccc(Cl)cc2)CC1C (stereo unspecified)
291 to 293	O=C(CCn1c2ccc(O)cc2c2c3c(c(-c4ccccc4Cl)cc21)C(=O)NC3=O)NS(=O)(=O)c1ccccc1
58 to 62	COC(=O)N1CCC[C@@H](OC)[C@@H]1CC(=O)Cn1cnc2c(Cl)c(Cl)sc2c1=O (relative stereo)
130 to 133	CCOCCOC(=O)C(=O)Nc1nc(-c2ccc(OC)cc2)cs1
162	O=S(=O)(Nc1ccc(Cl)cc1I)c1ccc2ncsc2c1
220 to 221	Cc1nn(CCNS(C)(=O)=O)c(-c2ccc(F)cc2)c1-c1ccc2c(c1)NC(=O)CO2
165 to 166	CC(=O)OC(C)c1cc2c(s1)C(=O)c1sccc1C2=O (stereo unspecified)
119 to 124	CN(c1cc(N2C(=O)C3CC(Cl)CN3C2=O)c(F)cc1Cl)S(=O)(=O)CCl (stereo unspecified)
210 to 212	CC(C)(C)OC(=O)NCc1cccc(Nc2ncnc3[nH]cc(C(=O)c4ccccc4)c23)c1
48 to 50	Clc1ccc2c(c1)N(CC#CCN1CCCC1)c1ccccc1S2
148 to 150	CN1C(=O)N(CC(CS(=O)(=O)c2ccc(-c3ccc(Cl)cc3)cc2)C(=O)O)C(=O)C1(C)C (stereo unspecified)
86 to 87	CCOC(=O)C(OC)c1nn(-c2ccc(Cl)cc2)c2c1CCCC2 (stereo unspecified)
191 to 192	Cc1c(-c2ccccc2)oc2c(C(=O)CCC(=O)O)cccc2c1=O
118	CN(C(=O)Nc1ccc(Cl)c(Cl)c1)S(=O)C(C)(C)C (stereo unspecified)
71 to 73	COc1ccccc1C(=O)N1CCN(C(=O)CNC2CCN(Cc3ccccc3)CC2)C(c2ccc(Cl)c(Cl)c2)C1 (racemic)
144	CC(C)(C)OC(=O)NCCNC(=O)c1noc(N)c1-c1ccccc1
75 to 77	CCOC(=O)c1c(C)[nH]c2ccc(OC[C@@H](O)CN=[N+]=[N-])cc12

melting point [°C]	Structure (SMILES)
199 to 201	CCOCCC(Cc1ccc(NC(=O)NC(=O)c2ccc(C(N)=S)cc2)cc1)C(=O)OC(C)(C)C (stereo unspecified)
230 to 231	CCOC(=O)c1cc2c3n(ccc-2n1)CC(C(F)(F)F)=N3
70 to 72	Cc1nc(CC(C)C)c(C#N)c(-c2ccc(Cl)cc2)c1C(=O)OC(C)(C)C
75 to 77	COC(=O)c1cc(I)cc2c(=O)cc[nH]c12
216 to 218	CCc1cc(=O)c2c([nH]1)COCC2
134 to 136	O=C1C2CCCC2=Nc2ccc(Cl)cc2N1Cc1ccccc1 (stereo unspecified)
155 to 156	CC(=NOCCOc1ccc(CC2SC(=O)NC2=O)cc1)c1ccc(-c2ccc(F)cc2)cc1 (stereo unspecified)
154 to 155	COc1ccc(CNc2cc(C(O)CNC(C)(C)CCn3cnc4ccccc43)ccc2O)cc1 (stereo unspecified)
152 to 154	COC(=O)COc1ccc(-c2c3ccccc3cc3sc4cc(OCC(=O)OC)ccc4c23)cc1
128 to 130	CC(C)(C)c1nc2cc(N3CCN(S(C)(=O)=O)CC3)c(N=C=S)cc2s1
293	N#Cc1c(N2CCN(C(=O)c3cccs3)CC2)c2sccc2[nH]c1=O
134 to 141	COc1ccc(C2=NN(c3ccc(C4=NNC(=O)CC4C)cc3)C(=O)C3CCCCC23)cc1OC1CCCC1 (stereo unspecified)
124 to 125	CCCc1c(OCCOc2ccc([N+](=O)[O-])cc2)ccc(C(C)=O)c1O
248 to 250	CC1(C)Oc2ccc(C#N)cc2C(n2ccc(O)cc2=O)C1O (stereo unspecified)
157 to 158	COC(=O)C1=C(C)NC(=S)N(C(=O)OC(C)C)C1c1cccc([N+](=O)[O-])c1 (stereo unspecified)
280 to 283	Nc1c(F)c(F)nc(-n2cc(C(=O)O)c(=O)c3cc(F)c(F)c(Cl)c32)c1F
107 to 108	CCOC(=O)Cn1c(-c2ccc(OC)cc2)nc2cccnc21
114 to 117	CCN1CCC(=O)C(=C2SC=CS2)C1=O
111 to 112	COC(=O)c1c(CC(C)C)nc2ccc(Cl)cc2c1-c1ccccc1
263 to 264	O=C(O)CCc1ccnc(-c2nc(=O)c3ccc(Cl)cc3s2)c1
151 to 153	Cc1ccc(N(C)S(=O)(=O)c2cccnc2Cl)c2[nH]c(C3=NCC(CN4CCOCC4)S3)cc12 (stereo unspecified)
> 300	Nc1n[nH]c2c1cnc1c(NC(=O)c3c(Cl)cccc3Cl)cccc12
